# According to paper PMC3465347, “Regulation of NF-κB Activation through a Novel PI-3K-Independent and PKA/Akt-Dependent Pathway in Human Umbilical Vein Endothelial Cells” (PLoS ONE, 2012):
# Legend:
# [1] = Aqueous solubility of MPG derivatives; assay type: physicochemical
# Experimental: Stock solutions of MPG and its derivatives (Tables S1, S2, S3) were prepared either in dimethylsulphoxide (DMSO) or cell culture medium. MPG and its derivatives were diluted to working concentrations in cell culture medium.
# [2] = test system: TNF-α-induced ICAM-1 expression on human endothelial cells; assay: Cell-ELISA for ICAM-1 expression; assay type: cell-based
# Experimental: (§1) The endothelial cells were incubated with or without MPG and its derivatives at various concentrations for 2 h followed by treatment with TNF-α (10 ng/ml) for 16 h for ICAM-1 and VCAM-1 expression and 4 h for E-selectin expression. A Cell-ELISA was used to assess the expression of ICAM-1, VCAM-1 and E-selectin on the surface of endothelial cells as described previously.
# [3] = test system: TNF-α-induced E-selectin expression on human endothelial cells; assay: Cell-ELISA for E-selectin expression; assay type: cell-based; settings: added 2–4 h prior to TNF-α stimulation; data not shown
# Experimental: as §1
# [4] = test system: E-selectin mRNA in endothelial cells; assay: RT-PCR of E-selectin transcript; assay type: cell-based, human; settings: 400 µM pretreatment, TNF-α 10 ng/ml 4 h
# Experimental: In order to examine whether MPTAG reduced the mRNA transcript levels of cell adhesion molecules genes, the endothelial cells were pretreated with 400 µM MPTAG for 2 h before induction with TNF-α for 4 h followed by RT-PCR. RNA was isolated from MPTAG-treated cells according to a modified guanidinium thiocyanate procedure. The expression of the transcripts for ICAM-1, VCAM-1 and E-selectin was evaluated by RT-PCR [45]. β-Actin levels expressed under similar conditions were used as a loading control.
# [5] = test system: NF-κBp65 subunit translocation in HUVECs; assay: NF-κB p65 nuclear translocation (western blot, immunocytochemistry); assay type: cell-based, human; settings: 400 µM, TNF-α-induced
# Experimental: The endothelial cells were subjected to the indicated treatments followed by induction with TNF-α for indicated time points or 30 mins. The cells were then washed with PBS and dislodged using a cell scraper. The cytoplasmic and nuclear extracts were prepared as described previously, [46].
# To study the effect of MPTAG on nuclear translocation of NF-κBp65 subunit in presence of TNF-α-stimulation, the HUVECs were seeded on gelatinized glass bottom 6-well plate at a cell density of 0.3×10^6 cells/ml. Following day, media was changed and MPTAG was added to the cells for 2 h. After the end of drug pretreatment, cells were induced with TNF-α for 45 mins. The cell monolayers were washed with PBS (phosphate buffered saline containing 1 mM CaCl2 and 1 mM MgCl2) and were fixed in a solution, containing 4% paraformaldehyde in 120 mM sodium phosphate buffer pH 7.2–7.4, for 20 mins at room temperature. The cells were then permeabilized using a high salt buffer, containing 0.45 M NaCl and 20 mM sodium phosphate buffer pH 7.2–7.4, 0.3% Triton X-100 and 0.2% gelatin, for 1 h at room temperature. Following this, the cells were incubated with anti-NF-κBp65 antibody for 2 h at room temperature. […] The fluorescent signals were then quantitated by selecting the nuclear and cytoplasmic regions in different fields using the NTS imaging software. […]
# [6] = test system: NF-κB p65 phosphorylation in endothelial cells; assay: p65 phosphorylation western blot; assay type: cell-based, human; settings: 400 µM pretreatment
# Experimental: (§2) Nuclear and cytoplasmic extracts were fractionated on SDS-PAGE with equal amount of proteins per well and transferred onto PVDF membranes and those membranes were incubated with appropriate primary antibodies and treated with HRP conjugated secondary antibodies followed by detection with DAB-H2O2 system. β-tubulin, α-actin and Lamin B1 were used as loading controls. Antibodies against NF-κBp65, phosphoNF-κBp65, IκBα, phosphoIκBα, IKK-β, Akt, phosphoAkt (Ser473) and phosphoAkt (Thr308) were used.
# [7] = test system: TNF-α-induced IKK-β activation in HUVECs; assay: IKK-β activation in treated cells (immunoprecipitation, kinase assay); assay type: cell-based, human
# Experimental: In brief, confluent HUVECs were incubated with or without MPTAG and were stimulated with TNF-α (10 ng/ml) for 15 mins. The cells were washed and lysed in Lysis buffer containing 50 mM HEPES, pH 7.6, 10% glycerol, 1 mM sodium orthovanadate, 100 mM NaCl, 1% NP-40, 1 mM EDTA and protease inhibitor cocktail and allowed to swell on ice for 45 mins. Following centrifugation at 13,000 rpm for 45 mins, the supernatants were collected as “total cell extracts” and stored at −70°C. Immunoprecipitation was performed as per the instructions of Protein G immunoprecipitation kit (Sigma Aldrich, USA). Endogenous IKK complexes were immunoprecipitated in the following reaction mixtures: 100–300 µg of total cell extracts were incubated with 2–4 µg anti-IKK-β or PKAα antibody in 100 µl 1× IP buffer. After incubation for 16 h at 4°C with constant shaking, 50 µl of activated protein G beads were added and the mixture was incubated under rotation for an additional 3 h at 4°C.
# Kinase assay was performed as previously described. Immunoprecipitates from 100 µg of total cell extracts were used for kinase assays. The reaction mixture consisted of kinase buffer (20 mM Tris Cl, pH 7.6, 1 mM EDTA, 1 mM sodium orthovanadate, 20 mM MgCl2, 2 mM DTT), 2 µg GST-IκBα(1–54), 5 µM ATP and 1 µCi [γ ^32P] ATP in a volume of 30 µl. […]
# [8] = test system: Akt phosphorylation in HUVECs; assay: Akt phosphorylation western blot; assay type: cell-based, human
# Experimental: as §2
# [9] = test system: ERK1/2; assay: ERK1/2 activation western blot; assay type: cell-based, human; settings: MPTAG pretreatment
smiles,measurement,setting,value
"CC(=O)OC[C@H]1O[C@@H](Oc2c(C)occc2=O)[C@H](OC(C)=O)[C@@H](OC(C)=O)[C@@H]1OC(C)=O [MPTAG, 2-methyl-pyran-4-one-3-O-β-D-2′,3′,4′,6′-tetra-O-acetyl glucopyranoside]",water solubility,[1],completely water soluble
same,inhibition of ICAM-1,"[2]; added 2–4 h prior to TNF-α stimulation, data not shown",maximum inhibition
same,"rank among derivatives for inhibition of TNF-α-induced ICAM-1, VCAM-1, E-selectin expression and neutrophil adhesion","[2]; human endothelial cells, Table S2",most active derivative
same,inhibition of E-selectin,[3],maximum inhibition
same,TNF-α-induced E-selectin mRNA level,[4],significantly reduced
same,translocation of NF-κBp65 subunit into the nucleus,[5],prevented the translocation
same,TNF-α-induced p65 phosphorylation in the cytoplasm,[6],inhibits p65 phosphorylation
same,TNF-α-induced activation of IKK-β,"[7]; pretreatment of cells, dose-dependent",appreciably suppressed
same,protein levels of IKK-β,[7]; western blot,neither TNF-α nor MPTAG affected
same,protein levels of Akt,[8]; 400 µM,without affecting
same,inhibitory effect of MPTAG on TNF-α-induced Akt phosphorylation when H-89 added prior,[8]; H-89 added prior to MPTAG,completely abolished
same,TNF-α-induced phosphorylation of Akt at Ser473,"[8]; MPTAG 400 µM, TNF-α 30 mins",inhibited
same,TNF-α-induced phosphorylation of Akt at Thr308,"[8]; MPTAG 400 µM, TNF-α 30 mins",inhibited
same,"TNF-α-induced Akt phosphorylation (Thr308), independently of wortmannin",[8]; with or without wortmannin before MPTAG,dose-dependently inhibited
same,TNF-α-induced ERK activation,[9],no effect
